The Kd is the constant that tells how readily two partners part at equilibrium. The term EC50 denotes the concentration giving half of the maximal effect. Lower therefore signals a more potent agent.

The structures appear in SMILES notation. Bridge positions count the residues as written; N and C are the ends. Peptide text beside a SMILES is read from it.

This is an account of results in ChEMBL document CHEMBL5143676, “Piezo-Type Mechanosensitive Ion Channel Component 1 (Piezo1): A Promising Therapeutic Target and Its Modulators” (J Med Chem, 2022).

Assay [1] concerns the target T1, Piezo-type mechanosensitive ion channel component 1 (Mus musculus, UniProt E2JF22). The experiment in a line: Binding affinity to mouse Piezo1 assessed as dissociation constant by SPR assay. For orientation: Surface plasmon resonance follows binding to a sensor surface in real time, without labels.
Assay [2] has as its target T1, Piezo-type mechanosensitive ion channel component 1. The experiment in a line: Inhibition of mouse Piezo1.
The target in assay [3] is T2, Piezo-type mechanosensitive ion channel component 1 (Homo sapiens, UniProt Q92508). The experiment in a line: Agonist activity at human Piezo1 transfected in human HEK293T cells by FLIPR assay. Format: cell-based.
T2 sequence (Q92508 whole entry): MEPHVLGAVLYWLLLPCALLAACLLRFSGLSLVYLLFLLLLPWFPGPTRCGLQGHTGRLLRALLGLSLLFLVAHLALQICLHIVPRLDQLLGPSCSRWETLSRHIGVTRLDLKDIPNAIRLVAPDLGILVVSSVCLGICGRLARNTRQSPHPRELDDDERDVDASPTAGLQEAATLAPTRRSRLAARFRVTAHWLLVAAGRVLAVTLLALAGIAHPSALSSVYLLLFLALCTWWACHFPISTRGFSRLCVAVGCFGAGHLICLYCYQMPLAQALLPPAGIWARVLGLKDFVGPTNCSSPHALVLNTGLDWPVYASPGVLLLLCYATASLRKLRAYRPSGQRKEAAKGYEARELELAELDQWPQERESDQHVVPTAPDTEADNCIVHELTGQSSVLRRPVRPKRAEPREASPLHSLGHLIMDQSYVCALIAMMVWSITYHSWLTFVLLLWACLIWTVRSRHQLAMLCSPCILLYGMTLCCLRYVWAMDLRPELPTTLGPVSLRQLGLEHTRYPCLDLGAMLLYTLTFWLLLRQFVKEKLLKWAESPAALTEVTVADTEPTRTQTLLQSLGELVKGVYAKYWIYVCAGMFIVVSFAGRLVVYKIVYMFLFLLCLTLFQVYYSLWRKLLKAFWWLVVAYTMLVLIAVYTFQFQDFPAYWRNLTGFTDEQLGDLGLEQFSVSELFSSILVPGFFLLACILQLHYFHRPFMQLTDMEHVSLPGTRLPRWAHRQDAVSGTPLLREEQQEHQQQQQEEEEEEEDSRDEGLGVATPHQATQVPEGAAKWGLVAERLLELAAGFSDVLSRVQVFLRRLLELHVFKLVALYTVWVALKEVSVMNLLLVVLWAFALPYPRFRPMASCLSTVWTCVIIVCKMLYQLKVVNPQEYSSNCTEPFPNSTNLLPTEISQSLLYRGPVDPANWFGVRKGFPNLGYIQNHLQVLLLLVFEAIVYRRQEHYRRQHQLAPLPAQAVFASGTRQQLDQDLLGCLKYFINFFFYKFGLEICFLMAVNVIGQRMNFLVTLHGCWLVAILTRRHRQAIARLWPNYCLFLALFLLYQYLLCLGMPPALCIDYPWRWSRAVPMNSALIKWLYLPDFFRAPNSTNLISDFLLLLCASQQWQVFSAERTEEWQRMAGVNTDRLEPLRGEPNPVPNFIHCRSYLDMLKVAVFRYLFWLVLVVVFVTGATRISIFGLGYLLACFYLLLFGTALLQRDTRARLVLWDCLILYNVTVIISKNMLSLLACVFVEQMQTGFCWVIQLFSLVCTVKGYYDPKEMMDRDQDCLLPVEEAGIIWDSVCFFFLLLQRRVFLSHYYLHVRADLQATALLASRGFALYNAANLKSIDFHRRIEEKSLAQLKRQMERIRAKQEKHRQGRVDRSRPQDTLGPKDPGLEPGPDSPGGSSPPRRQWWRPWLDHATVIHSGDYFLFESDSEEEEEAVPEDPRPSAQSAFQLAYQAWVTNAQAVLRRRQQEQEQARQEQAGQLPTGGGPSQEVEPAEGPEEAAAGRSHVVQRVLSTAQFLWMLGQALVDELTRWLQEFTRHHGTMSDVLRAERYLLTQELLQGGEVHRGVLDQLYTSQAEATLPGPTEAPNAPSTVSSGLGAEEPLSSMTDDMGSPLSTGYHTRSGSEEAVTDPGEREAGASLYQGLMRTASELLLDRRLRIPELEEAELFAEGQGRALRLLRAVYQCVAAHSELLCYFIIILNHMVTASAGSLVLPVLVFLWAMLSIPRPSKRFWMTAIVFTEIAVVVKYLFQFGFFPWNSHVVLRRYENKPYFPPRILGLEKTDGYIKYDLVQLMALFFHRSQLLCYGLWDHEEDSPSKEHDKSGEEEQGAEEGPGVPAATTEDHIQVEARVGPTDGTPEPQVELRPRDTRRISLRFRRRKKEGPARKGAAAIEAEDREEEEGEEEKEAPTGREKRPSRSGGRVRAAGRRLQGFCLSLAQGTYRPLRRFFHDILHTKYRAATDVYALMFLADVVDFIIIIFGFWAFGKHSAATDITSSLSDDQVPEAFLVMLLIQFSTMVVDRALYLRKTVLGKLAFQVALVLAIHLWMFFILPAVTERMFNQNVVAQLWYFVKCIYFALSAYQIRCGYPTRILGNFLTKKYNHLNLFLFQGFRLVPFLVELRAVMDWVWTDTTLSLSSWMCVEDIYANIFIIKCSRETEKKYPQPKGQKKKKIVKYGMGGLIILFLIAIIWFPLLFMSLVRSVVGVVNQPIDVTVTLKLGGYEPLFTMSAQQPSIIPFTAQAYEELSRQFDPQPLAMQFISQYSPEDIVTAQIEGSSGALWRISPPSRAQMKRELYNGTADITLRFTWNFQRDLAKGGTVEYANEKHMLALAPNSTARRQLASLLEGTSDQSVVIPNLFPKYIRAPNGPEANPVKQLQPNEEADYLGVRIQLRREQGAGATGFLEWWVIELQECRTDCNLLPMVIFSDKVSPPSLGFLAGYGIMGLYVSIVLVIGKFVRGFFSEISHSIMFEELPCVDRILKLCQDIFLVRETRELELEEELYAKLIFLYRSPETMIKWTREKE
Assay [4] has as its target T1, Piezo-type mechanosensitive ion channel component 1. The experiment in a line: Agonist activity at mouse Piezo1 transfected in human HEK293T cells by FLIPR assay. The format is cell-based.
Assay [5] deals with T2, Piezo-type mechanosensitive ion channel component 1. The experiment in a line: Binding affinity to Piezo1 (unknown origin) transfected in human HEK293 cells assessed as equilibrium constant at 40 mmHg/+50 mV. Format: cell-based.
For assay [6] the target is unchanged. Put plainly: Inhibition of Piezo1 (unknown origin) transfected in human HEK293 cells assessed as rightward shift in pressure-gating curve at 50 mV at 1 to 4 uM. Format: cell-based. The settings on record: dose 1-4 µM.

T1 sequence (E2JF22 whole entry): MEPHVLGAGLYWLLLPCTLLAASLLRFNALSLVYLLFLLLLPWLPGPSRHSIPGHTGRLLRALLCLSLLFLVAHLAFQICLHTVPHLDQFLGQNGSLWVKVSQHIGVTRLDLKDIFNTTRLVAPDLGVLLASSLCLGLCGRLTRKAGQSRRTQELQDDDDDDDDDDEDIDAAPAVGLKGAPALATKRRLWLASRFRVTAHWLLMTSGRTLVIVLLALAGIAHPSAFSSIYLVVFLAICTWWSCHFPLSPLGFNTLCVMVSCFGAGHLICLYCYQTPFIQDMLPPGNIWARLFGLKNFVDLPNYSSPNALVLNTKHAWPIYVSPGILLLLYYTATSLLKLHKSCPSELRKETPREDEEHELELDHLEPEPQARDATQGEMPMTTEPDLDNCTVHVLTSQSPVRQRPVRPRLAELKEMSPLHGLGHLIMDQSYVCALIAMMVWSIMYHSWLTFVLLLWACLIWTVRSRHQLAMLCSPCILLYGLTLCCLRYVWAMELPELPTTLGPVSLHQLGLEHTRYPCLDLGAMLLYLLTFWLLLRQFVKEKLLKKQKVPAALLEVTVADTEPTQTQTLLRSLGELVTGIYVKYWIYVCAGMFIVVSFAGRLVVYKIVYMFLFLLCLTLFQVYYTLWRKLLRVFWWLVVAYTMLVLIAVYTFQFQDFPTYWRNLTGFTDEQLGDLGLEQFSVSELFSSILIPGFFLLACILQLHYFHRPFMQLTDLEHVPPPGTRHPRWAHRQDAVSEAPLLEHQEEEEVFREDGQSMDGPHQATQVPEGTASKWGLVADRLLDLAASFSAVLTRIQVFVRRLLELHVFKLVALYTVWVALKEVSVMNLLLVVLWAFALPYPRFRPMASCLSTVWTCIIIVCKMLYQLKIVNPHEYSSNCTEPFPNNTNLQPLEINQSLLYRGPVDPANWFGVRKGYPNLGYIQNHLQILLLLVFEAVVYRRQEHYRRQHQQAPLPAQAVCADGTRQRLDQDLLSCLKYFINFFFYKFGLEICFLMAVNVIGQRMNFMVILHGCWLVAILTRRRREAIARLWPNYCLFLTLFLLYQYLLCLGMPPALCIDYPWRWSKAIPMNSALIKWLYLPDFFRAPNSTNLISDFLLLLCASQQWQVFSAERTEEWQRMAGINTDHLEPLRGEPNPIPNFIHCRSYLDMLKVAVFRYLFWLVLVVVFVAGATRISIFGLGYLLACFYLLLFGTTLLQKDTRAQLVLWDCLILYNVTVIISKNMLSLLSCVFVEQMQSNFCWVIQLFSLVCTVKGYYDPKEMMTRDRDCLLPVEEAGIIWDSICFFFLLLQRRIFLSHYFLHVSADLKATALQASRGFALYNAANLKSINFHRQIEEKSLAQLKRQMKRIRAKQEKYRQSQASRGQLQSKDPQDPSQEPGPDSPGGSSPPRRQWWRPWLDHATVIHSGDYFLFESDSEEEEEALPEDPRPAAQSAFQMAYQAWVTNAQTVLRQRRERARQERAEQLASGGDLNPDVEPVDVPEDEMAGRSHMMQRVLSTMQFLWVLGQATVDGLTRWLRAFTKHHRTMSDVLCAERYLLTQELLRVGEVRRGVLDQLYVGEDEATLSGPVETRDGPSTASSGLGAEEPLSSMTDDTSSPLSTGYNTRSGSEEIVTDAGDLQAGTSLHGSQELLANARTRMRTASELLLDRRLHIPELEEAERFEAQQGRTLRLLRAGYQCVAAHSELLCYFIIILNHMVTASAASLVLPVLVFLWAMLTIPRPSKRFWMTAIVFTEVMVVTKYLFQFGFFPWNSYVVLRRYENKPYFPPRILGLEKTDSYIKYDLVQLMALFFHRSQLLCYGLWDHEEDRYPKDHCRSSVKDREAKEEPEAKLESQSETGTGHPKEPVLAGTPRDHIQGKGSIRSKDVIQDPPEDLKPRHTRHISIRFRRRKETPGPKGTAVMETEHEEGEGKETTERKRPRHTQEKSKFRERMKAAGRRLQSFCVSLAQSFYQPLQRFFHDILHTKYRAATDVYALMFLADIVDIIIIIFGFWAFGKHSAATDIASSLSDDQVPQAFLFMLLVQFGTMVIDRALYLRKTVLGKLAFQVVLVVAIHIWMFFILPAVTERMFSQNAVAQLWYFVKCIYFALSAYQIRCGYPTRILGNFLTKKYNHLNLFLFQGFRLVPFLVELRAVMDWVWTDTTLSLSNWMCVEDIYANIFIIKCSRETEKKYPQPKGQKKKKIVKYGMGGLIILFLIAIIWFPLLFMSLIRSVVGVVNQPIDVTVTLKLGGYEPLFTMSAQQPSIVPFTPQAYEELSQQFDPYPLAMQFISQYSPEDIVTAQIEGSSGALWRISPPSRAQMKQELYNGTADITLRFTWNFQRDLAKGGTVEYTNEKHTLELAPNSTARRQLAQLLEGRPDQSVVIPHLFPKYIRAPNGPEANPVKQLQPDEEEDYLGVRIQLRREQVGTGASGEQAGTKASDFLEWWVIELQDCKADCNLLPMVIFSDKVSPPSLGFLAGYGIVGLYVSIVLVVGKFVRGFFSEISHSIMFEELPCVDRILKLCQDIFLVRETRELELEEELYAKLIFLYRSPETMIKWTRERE

For the compound `Cc1oc(-c2cccs2)cc1C(=O)O`, the Kd in assay [1] turned out to be 2240 µM. Turning to `Cc1oc(-c2ccccc2)cc1C(=O)O`, the response in assay [2] was half-maximal at 200 µM (EC50). With `Clc1cccc(Cl)c1CSc1nnc(-c2cnccn2)s1`, the EC50 in assay [3] was 26.6 µM; in assay [4] it was 17.1 µM. For `CC(C)C[C@@H]1NC(=O)[C@@H](NC(=O)CN)CSSC[C@@H]2NC(=O)[C@@H]3CSSC[C@@H](C(=O)N[C@@H](CC(N)=O)C(=O)N[C@@H](Cc4ccccc4)C(=O)N[C@@H](CO)C(=O)N[C@@H](Cc4ccccc4)C(N)=O)NC(=O)[C@H](CC(C)C)NC(=O)[C@H](CCCCN)NC(=O)[C@H](Cc4ccccc4)NC(=O)[C@H](CC(C)C)NC(=O)[C@H](CCCCN)NC(=O)[C@H](CO)NC(=O)[C@H](CSSC[C@H](NC(=O)[C@H](CCCCN)NC(=O)[C@H](Cc4c[nH]c5ccccc45)NC(=O)[C@H](Cc4c[nH]c5ccccc45)NC(=O)[C@H](Cc4ccccc4)NC(=O)[C@H](CCC(=O)O)NC1=O)C(=O)N[C@@H](CC(N)=O)C(=O)N1CCC[C@H]1C(=O)N[C@@H](CC(N)=O)C(=O)N[C@@H](CC(=O)O)C(=O)N[C@@H](CC(=O)O)C(=O)N[C@@H](CCCCN)C(=O)N3)NC(=O)[C@H](CCCCN)NC(=O)[C@H](CC(C)C)NC(=O)[C@H](CCCCN)NC(=O)[C@@H]1CCCN1C(=O)[C@H](CCCNC(=N)N)NC2=O` (H-GCLEFWWKCNPNDDKCCRPKLKCSKLFKLCNFSF-NH2; disulfide 2-17, 9-23, 16-30), in assay [5], the Ke was determined as 155 nM. In addition, the Activity in assay [6] amounted to 30 mmHg.
